Results reported in patent publication US10172868B2, “Substituted quinazolines for inhibiting kinase activity” (NeuPharma, Inc., priority 2013, dated 2019).

How the values were obtained:
[1] = molecular target: EGFR (ErbB1) T790M L858R (Homo sapiens (Human), UniProt P00533, L858R/T790M); assay: Z'-LYTE kinase inhibition assay, EGFR L858R/T790M; assay type: biochemical; details: for inhibition at 1 µM: read-out: % inhibition against EGFR L858R/T790M (Compound at 1 μM); for IC50: read-out: IC50 against EGFR L858R/T790M; for inhibition at 0.0137 µM: read-out: % inhibition against EGFR L858R/T790M (Compound at 0.0137 μM)
Method in brief: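 Z'-LYTE FRET peptide assay at 1% DMSO, 10-point 3-fold titrations; kinase/peptide mix in 50 mM HEPES pH 6.5, 0.01% BRIJ-35, 10 mM MgCl2, 1 mM EGTA, 0.02% NaN3. Kinase reaction ran 60 min at room temperature, followed by 60 min development and a fluorescence read. IC50 derived from the concentration series.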

[2] = molecular target: FGFR1 (Homo sapiens (Human), UniProt P11362); assay: Z'-LYTE kinase inhibition assay, FGFR1; assay type: biochemical; details: compound at 0.041 μM; read-out: % inhibition against FGFR1
Method: Inhibitory activities of compounds against BTK, EGFR and EGFR mutants (EGFR L858R, EGFR T790M, EGFR L858R/T790M), FGFR1, FGFR2, JAK2, JAK3 and KDR were measured by Invitrogen using Z'-LYTE® Method as briefly described in the following.
Test Compounds are screened in 1% DMSO (final) in the well. For 10 point titrations, 3-fold serial dilutions are conducted from the starting concentration. All ATP Solutions are diluted to a 4× working concentration in Kinase Buffer (50 mM HEPES pH 7.5, 0.01% BRIJ-35, 10 mM MgCl2, 1 mM EGTA). Peptide/Kinase Mixtures are diluted to a 2× working concentration in the appropriate Kinase Buffers as described below.
(v) Peptide/Kinase Mixtures for Measurement of FGFR1:
The 2×FGFR1/Tyr 04 mixture is prepared in 50 mM HEPES pH 7.5, 0.01% BRIJ-35, 10 mM MgCl2, 4 mM MnCl2, 1 mM EGTA, 2 mM DTT. The final 10 μL Kinase Reaction consists of 0.41-3.5 ng FGFR1 and 2 μM Tyr 04 in 50 mM HEPES pH 7.5, 0.01% BRIJ-35, 10 mM MgCl2, 2 mM MnCl2, 1 mM EGTA, 1 mM DTT. After the 1 hour Kinase Reaction incubation, 5 μL of a 1:64 dilution of Development Reagent B is added.
Reaction starts by 30-second shaking of mixture consisting of 2.5 μL 4× test compound, […] 2× kinase reaction mixture and 2.5 μL 4×ATP Solution on Bar-coded Corning, low volume NBS, black 384-well plate (Corning Cat. #3676). Then the mixture is incubated for 60-minute at room temperature for the kinase reaction, followed by addition of 5 μL of a 1:1024 dilution of development reagent A and 30-second plate shake. The mixture is then incubated for another 60-minute at room temperature for development reaction. Finally fluorescence is read by plate reader.
To determine IC50 of a compound against EGFR, EGFR mutant and other kinases, a series of concentrations of the compound were tested for the inhibition. […] The scale utilized in Table 4 is as follows: +++ less than 100 nM, ++ 100-500 nM and + greater than 500 nM.

[3] = test system: HCC827 cells; assay: cells; details: Homo sapiens, HCC827, 72 h, read-out: IC50 in HCC827 cells
[4] = test system: H1975 cells; assay: Inhibition of cancer cell growth, MTT assay, H1975; details: Homo sapiens, NCI-H1975, 72 h, read-out: IC50 in H1975 cells
Method: (§1) Inhibition of cell growth by compounds was measured using MTT assay (Mosmann, T., Journal of Immunological Methods, 1983, 65, 55-63). Tumor cell lines were purchased from ATCC (American Type Culture Collection, Manassas, Va.). All cell lines were maintained in RPMI 1640 (Hyclone) supplemented with 10% fetal bovine serum (FBS, Hyclone), glutamine (2 mM, Hyclone), and antibiotics (penicillin 100 U/mL and streptomycin 50 μg/mL) at 37° C. in a humidified atmosphere of 5% CO2 in air. Taxol (as a positive control. Sigma) and compounds were dissolved in DMSO (Sigma), and the final concentration of DMSO in the medium was 1%. Tumor cells were plated in 96-well plates at densities of about 4000 cells/well of a 96-well plate and allowed to adhere/grow for 24 h. They were then treated with various concentrations of drug for 72 h, 3-(4,5-Dimethylthiazol-2-yl)-2,5-diphenyltetrazolium bromide (MTT, Sigma) was used to determine the number of viable cells at the time of compound addition and the number of cells remaining after 72 h compound exposure. The number of cells remaining after 72 h was compared to the number of viable cells at the time of compound addition by measuring the absorbance at 570 nm, allowing for the calculation of growth inhibition.
(§2) All concentrations of compounds were tested in triplicate and controls were averaged over 4 wells. IC50 was calculated by plotting the concentration of compound vs the percentage of inhibition in treated wells using GraphPad Prism 5.

[5] = molecular target: EGFR (ErbB1) (Homo sapiens (Human), UniProt P00533); assay: Z'-LYTE kinase inhibition assay, EGFR; assay type: biochemical; details: for inhibition at 1 µM: read-out: % inhibition against EGFR (Compound at 1 μM); for inhibition at 0.041 µM: read-out: % inhibition against EGFR (Compound at 0.041 μM); for IC50: read-out: IC50 against EGFR
Method in brief: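 Z'-LYTE FRET assay run with 1.1-5.25 ng EGFR and 2 μM peptide substrate in 50 mM HEPES pH 7.5, 10 mM MgCl2, 2 mM MnCl2, 1 mM EGTA, 1 mM DTT, 0.01% BRIJ-35, 1% DMSO. Kinase reaction 60 min at room temperature, then 60 min development; IC50 from 10-point 3-fold titrations.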

[6] = test system: A431 cells; assay: cells; details: Homo sapiens, A-431, 72 h, read-out: IC50 in A431 cells
[7] = test system: H1299 cells; assay: Inhibition of cancer cell growth, MTT assay, H1299; details: Homo sapiens, NCI-H1299, 72 h, read-out: IC50 in H1299 cells
Method: as §1, §2

[8] = test system: H3255 cells; assay: Inhibition of cancer cell growth, MTT assay, H3255; details: Homo sapiens, NCI-H3255, 72 h, read-out: IC50 in H3255 cells
Method: as §1, §2

[9] = molecular target: BTK (Homo sapiens (Human), UniProt Q06187); assay: Z'-LYTE kinase inhibition assay, BTK; assay type: biochemical; details: read-out: IC50 against BTK
Method in brief: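 Z'-LYTE FRET assay with Tyr 01 peptide in 50 mM HEPES pH 7.5, 10 mM MgCl2, 1 mM EGTA, 0.01% BRIJ-35. Compounds in 1% DMSO were tested as 10-point, 3-fold titrations.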

[10] = test system: H1975 tumor xenografts; assay: Inhibition of tumor growth in H1975 xenograft model; assay type: in vivo, BALB/c female nude mice; details: Table 7 study, 60 mg/kg, Oral, QD x 14; for Tumor Volume Pre-treatment: baseline before treatment
Method: H1975 cells were implanted in BALB/c female nude mice and grown as tumor xenografts. When tumors achieved 120-200 mm^3, mice were assigned into treatment and control groups using randomized block design based upon their tumor volumes. Each group contained 6 tumor-bearing mice. Tumors were measured twice weekly in two dimensions using a caliper, and the tumor volume was calculated from two-dimensional measurements using the equation V=0.5×a×b^2 where a and b are the long and short diameters of the tumor, respectively. Relative tumor volume (RTV) was defined as TVt/TVi, the ratio of the volume on a given day (TVt) and the volume at the start of treatment (TVi). Relative tumor growth rate (T/C) was defined as RTVT/RTVC, the ratio of relative tumor volume of treatment group (RTVT) and relative tumor volume of control group (RTVC) on a given day.

Sequence of FGFR1 (P11362 22-822): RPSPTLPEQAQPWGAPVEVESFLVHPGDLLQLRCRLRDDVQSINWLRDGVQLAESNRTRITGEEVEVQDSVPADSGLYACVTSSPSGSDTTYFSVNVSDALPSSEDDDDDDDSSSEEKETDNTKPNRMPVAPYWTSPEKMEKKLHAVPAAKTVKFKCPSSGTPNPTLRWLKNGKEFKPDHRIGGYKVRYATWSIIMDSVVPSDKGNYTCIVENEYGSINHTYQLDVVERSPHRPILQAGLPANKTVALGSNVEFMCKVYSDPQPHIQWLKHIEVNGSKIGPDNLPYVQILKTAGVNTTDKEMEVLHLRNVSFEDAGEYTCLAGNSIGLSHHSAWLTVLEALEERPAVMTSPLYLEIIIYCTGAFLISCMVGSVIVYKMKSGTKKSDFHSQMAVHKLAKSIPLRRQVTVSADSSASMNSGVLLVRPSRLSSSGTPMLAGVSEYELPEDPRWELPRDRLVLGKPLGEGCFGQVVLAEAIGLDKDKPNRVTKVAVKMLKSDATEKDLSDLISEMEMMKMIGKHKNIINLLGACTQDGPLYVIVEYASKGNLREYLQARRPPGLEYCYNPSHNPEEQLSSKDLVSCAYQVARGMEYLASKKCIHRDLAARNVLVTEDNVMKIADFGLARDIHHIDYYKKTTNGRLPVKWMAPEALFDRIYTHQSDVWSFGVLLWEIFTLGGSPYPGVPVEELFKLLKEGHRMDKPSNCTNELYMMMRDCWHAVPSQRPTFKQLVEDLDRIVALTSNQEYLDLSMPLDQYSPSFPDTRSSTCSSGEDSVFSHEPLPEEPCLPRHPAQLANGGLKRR
Sequence of EGFR (ErbB1) T790M L858R (P00533 25-1210 T790M/L858R): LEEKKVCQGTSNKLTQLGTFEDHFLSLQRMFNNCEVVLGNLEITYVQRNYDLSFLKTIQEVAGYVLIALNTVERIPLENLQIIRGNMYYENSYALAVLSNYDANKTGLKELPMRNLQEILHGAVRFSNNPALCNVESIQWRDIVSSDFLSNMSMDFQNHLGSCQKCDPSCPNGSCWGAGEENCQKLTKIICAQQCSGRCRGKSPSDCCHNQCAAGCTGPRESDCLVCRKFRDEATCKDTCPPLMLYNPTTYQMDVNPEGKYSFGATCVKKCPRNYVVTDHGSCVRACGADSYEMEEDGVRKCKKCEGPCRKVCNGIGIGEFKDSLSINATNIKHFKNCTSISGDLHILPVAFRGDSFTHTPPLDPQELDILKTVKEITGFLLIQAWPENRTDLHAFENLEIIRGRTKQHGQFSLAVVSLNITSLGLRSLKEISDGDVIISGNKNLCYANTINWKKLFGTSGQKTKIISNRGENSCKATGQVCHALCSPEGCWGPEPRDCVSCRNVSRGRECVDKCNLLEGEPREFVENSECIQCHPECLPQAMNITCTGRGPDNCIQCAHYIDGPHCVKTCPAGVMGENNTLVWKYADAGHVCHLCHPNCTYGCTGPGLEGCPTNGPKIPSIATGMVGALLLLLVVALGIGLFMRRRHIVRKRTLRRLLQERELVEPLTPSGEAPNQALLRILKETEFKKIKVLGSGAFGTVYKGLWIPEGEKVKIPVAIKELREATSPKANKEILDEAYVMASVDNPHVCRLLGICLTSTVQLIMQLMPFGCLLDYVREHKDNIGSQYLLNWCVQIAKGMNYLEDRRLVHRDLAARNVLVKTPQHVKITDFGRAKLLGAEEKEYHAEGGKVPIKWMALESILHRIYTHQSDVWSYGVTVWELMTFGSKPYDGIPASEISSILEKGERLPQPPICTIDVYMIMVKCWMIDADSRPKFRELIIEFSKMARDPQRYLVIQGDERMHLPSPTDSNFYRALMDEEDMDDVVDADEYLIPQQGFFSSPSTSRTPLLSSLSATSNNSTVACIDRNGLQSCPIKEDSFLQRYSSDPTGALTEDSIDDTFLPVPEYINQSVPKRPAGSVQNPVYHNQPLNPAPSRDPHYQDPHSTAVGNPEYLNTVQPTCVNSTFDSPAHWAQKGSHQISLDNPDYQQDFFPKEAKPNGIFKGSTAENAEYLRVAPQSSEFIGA
Sequence of EGFR (ErbB1) (P00533 25-1210): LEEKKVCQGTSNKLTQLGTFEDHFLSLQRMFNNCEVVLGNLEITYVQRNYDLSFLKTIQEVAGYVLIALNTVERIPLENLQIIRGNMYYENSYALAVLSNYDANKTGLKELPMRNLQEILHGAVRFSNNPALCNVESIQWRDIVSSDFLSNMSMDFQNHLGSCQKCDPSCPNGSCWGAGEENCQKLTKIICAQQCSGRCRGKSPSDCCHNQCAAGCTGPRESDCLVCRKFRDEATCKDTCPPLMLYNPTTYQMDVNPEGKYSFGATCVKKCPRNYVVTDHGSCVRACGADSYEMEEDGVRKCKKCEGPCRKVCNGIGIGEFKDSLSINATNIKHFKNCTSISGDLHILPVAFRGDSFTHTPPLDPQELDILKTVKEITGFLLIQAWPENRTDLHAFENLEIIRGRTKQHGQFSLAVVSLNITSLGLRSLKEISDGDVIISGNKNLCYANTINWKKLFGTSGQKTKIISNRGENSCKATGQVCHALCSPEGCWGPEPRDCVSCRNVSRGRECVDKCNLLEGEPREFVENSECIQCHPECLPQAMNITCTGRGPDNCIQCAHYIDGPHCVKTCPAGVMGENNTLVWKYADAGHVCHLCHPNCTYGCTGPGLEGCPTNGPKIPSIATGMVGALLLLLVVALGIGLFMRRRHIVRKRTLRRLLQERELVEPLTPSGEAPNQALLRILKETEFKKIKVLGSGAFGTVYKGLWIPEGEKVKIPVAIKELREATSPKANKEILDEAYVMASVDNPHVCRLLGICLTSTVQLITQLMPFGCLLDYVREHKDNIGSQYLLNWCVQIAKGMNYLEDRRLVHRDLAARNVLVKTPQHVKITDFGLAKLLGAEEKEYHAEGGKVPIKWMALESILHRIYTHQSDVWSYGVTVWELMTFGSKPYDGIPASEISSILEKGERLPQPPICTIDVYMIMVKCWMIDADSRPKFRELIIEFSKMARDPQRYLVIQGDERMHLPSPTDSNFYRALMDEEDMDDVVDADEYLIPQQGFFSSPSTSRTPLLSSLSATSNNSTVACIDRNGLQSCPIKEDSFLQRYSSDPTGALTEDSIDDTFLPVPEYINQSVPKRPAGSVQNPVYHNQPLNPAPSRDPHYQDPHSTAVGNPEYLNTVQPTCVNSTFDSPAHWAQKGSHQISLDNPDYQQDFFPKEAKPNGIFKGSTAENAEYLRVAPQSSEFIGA
Sequence of BTK (Q06187 whole entry): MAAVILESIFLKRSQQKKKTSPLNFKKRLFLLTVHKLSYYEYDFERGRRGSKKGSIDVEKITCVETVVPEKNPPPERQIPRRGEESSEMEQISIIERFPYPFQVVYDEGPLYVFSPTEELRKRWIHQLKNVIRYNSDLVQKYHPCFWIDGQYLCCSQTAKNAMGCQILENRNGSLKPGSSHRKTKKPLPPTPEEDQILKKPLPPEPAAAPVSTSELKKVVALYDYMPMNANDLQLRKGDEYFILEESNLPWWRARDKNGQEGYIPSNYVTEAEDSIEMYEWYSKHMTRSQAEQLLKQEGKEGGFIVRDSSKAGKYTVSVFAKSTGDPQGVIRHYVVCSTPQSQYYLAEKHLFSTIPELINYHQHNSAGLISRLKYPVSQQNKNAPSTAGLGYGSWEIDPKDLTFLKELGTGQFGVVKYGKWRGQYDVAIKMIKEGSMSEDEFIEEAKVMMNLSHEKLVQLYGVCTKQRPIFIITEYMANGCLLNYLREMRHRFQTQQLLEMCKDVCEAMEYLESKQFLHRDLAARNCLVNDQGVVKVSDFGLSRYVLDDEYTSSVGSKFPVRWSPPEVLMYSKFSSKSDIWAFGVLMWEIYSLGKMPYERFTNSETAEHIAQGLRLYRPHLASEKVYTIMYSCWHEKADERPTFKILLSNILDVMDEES

| Compound | inhibition at 1 µM [1] | inhibition at 0.041 µM [2] | IC50 [3] | IC50 [4] | inhibition at 1 µM [5] | inhibition at 0.041 µM [5] | IC50 [5] | IC50 [1] | IC50 [6] | IC50 [7] | inhibition at 0.0137 µM [1] | IC50 [8] | IC50 [9] | T/C (relative tumor growth rate) [10] | Tumor Volume Post-treatment [10] | Tumor Volume Pre-treatment [10] |
| --- | --- | --- | --- | --- | --- | --- | --- | --- | --- | --- | --- | --- | --- | --- | --- | --- |
| CCC(=O)Nc1cccc(-c2cccc3cnc(Nc4ccc(N5CCN(C)CC5)cc4)nc23)c1 [Example C020, N-(3-(2-((4-(4-methylpiperazin-1-yl)phenyl)amino)quinazolin-8-yl)phenyl)propionamide] | > 50% | > 50% | > 500 nM | > 500 nM | – | – | – | – | – | – | – | – | – | – | – | – |
| Clc1cccc(-c2cccc3cnc(Nc4ccc(N5CCNCC5)cc4)nc23)c1 [Example C025, 8-(3-chlorophenyl)-N-(4-(piperazin-1-yl)phenyl)quinazolin-2-amine] | > 50% | > 50% | > 500 nM | > 500 nM | – | – | – | – | – | – | – | – | – | – | – | – |
| Fc1cccc(-c2cccc3cnc(Nc4ccc(N5CCNCC5)cc4)nc23)c1 [Example C027, 8-(3-fluorophenyl)-N-(4-(piperazin-1-yl)phenyl)quinazolin-2-amine] | > 50% | > 50% | 100 to 500 nM | > 500 nM | – | – | – | – | – | – | – | – | – | – | – | – |
| Fc1ccccc1-c1cccc2cnc(Nc3ccc(N4CCNCC4)cc3)nc12 [Example C031, 8-(2-fluorophenyl)-N-(4-(piperazin-1-yl)phenyl)quinazolin-2-amine] | > 50% | > 50% | > 500 nM | > 500 nM | > 50% | – | – | – | – | – | – | – | – | – | – | – |
| C=CC(=O)Nc1cccc(-c2c(C)ccc3cnc(Nc4ccc(N5CCN(C)CC5)cc4)nc23)c1 [Example C034, N-(3-(7-methyl-2-((4-(4-methylpiperazin-1-yl)phenyl)amino)quinazolin-8-yl)phenyl)acrylamide] | – | – | < 100 nM | < 100 nM | > 50% | > 50% | < 100 nM | < 100 nM | > 500 nM | > 500 nM | – | – | – | – | – | – |
| C=CC(=O)Nc1cccc(-c2c(C)ccc3cnc(Nc4ccc(N5CCN(C(C)=O)CC5)cc4)nc23)c1 [Example C035, N-(3-(2-((4-(4-acetylpiperazin-1-yl)phenyl)amino)-7-methylquinazolin-8-yl)phenyl)acrylamide] | – | – | < 100 nM | < 100 nM | – | – | – | – | > 500 nM | > 500 nM | – | – | – | – | – | – |
| C=CC(=O)Nc1cncc(-c2cccc3cnc(Nc4ccc(N5CCN(C(C)=O)CC5)cc4)nc23)c1 [Example C039, N-(5-(2-((4-(4-acetylpiperazin-1-yl)phenyl)amino)quinazolin-8-yl)pyridin-3-yl)acrylamide] | – | – | < 100 nM | 100 to 500 nM | – | – | – | – | – | > 500 nM | – | – | – | – | – | – |
| C=CC(=O)Nc1cccc(-c2cccc3cnc(Nc4cnc(N5CCN(C)CC5)nc4)nc23)c1 [Example C046, N-(3-(2-((2-(4-methylpiperazin-1-yl)pyrimidin-5-yl)amino)quinazolin-8-yl)phenyl)acrylamide] | – | – | – | < 100 nM | – | > 50% | – | – | > 500 nM | > 500 nM | > 50% | – | – | – | – | – |
| C=CC(=O)Nc1cccc(-c2cccc3cnc(Nc4ccc(N5CCN(C(C)=O)CC5)cc4)nc23)c1Cl [Example C051, N-(3-(2-((4-(4-acetylpiperazin-1-yl)phenyl)amino)quinazolin-8-yl)-2-chlorophenyl)acrylamide] | – | < 50% | – | 100 to 500 nM | – | < 50% | – | – | > 500 nM | – | > 50% | – | – | – | – | – |
| C=CC(=O)Nc1cccc(-c2cccc3cnc(Nc4ccc(N5CCN(C)CC5)c(OC)c4)nc23)c1 [Example C075, N-(3-(2-((3-methoxy-4-(4-methylpiperazin-1-yl)phenyl)amino)quinazolin-8-yl)phenyl)acrylamide] | – | > 50% | – | < 100 nM | – | > 50% | – | < 100 nM | 100 to 500 nM | – | > 50% | – | – | – | – | – |
| C=CC(=O)Nc1cccc(-c2c(F)ccc3cnc(Nc4ccc(N5CCN(CCF)CC5)cc4)nc23)c1 [Example C088, N-(3-(7-fluoro-2-((4-(4-(2-fluoroethyl)piperazin-1-yl)phenyl)amino)quinazolin-8-yl)phenyl)acrylamide] | – | – | – | < 100 nM | – | > 50% | – | < 100 nM | > 500 nM | > 500 nM | > 50% | > 500 nM | – | – | – | – |
| C=CC(=O)Nc1cccc(-c2cccc3cnc(Nc4ccc(N5CCN(CCO)CC5)cc4F)nc23)c1 [Example C147, N-(3-(2-((2-fluoro-4-(4-(2-hydroxyethyl)piperazin-1-yl)phenyl)amino)quinazolin-8-yl)phenyl)acrylamide] | – | – | < 100 nM | < 100 nM | – | < 50% | < 100 nM | < 100 nM | 100 to 500 nM | – | – | > 500 nM | < 100 nM | 55.7% | 898 mm3 | 240 mm3 |
| C=CC(=O)Nc1cccc(-c2cccc3cnc(Nc4ccc(N5CCN(CCO)CC5)c(F)c4F)nc23)c1 [Example C151, N-(3-(2-((2,3-difluoro-4-(4-(2-hydroxyethyl)piperazin-1-yl)phenyl)amino)quinazolin-8-yl)phenyl)acrylamide] | – | – | < 100 nM | < 100 nM | – | < 50% | < 100 nM | < 100 nM | 100 to 500 nM | – | – | > 500 nM | < 100 nM | 28.6% | 462 mm3 | 229 mm3 |
| C=CC(=O)Nc1cccc(-c2cccc3cnc(Nc4ccc(N5CCN(C)CC5)c(F)c4F)nc23)c1 [Example C156, N-(3-(2-((2,3-difluoro-4-(4-methylpiperazin-1-yl)phenyl)amino)quinazolin-8-yl)phenyl)acrylamide] | – | – | < 100 nM | < 100 nM | – | – | < 100 nM | < 100 nM | 100 to 500 nM | – | – | > 500 nM | – | 36.8% | 594 mm3 | 232 mm3 |
